Assay results taken from ChEMBL document CHEMBL1150104, “Isolation and structure identification of an active DNA strand-scission agent, (+)-3,4-di-hydroxy-8,9-methylenedioxypterocarpan” (1995).
Converted amounts (≈) assume the structure as drawn. The source made the active and inactive calls. The calls are words filed in the database; no cut-off is given here.

Legend:
[1] = test system: Nucleic Acid; test: Induction of DNA strand scission activity in Escherichia coli pBR322 at 0.1 ug/mL by electrophoresis; assay type: nucleic-acid assay
[2] = test system: Nucleic Acid; test: Induction of DNA strand scission activity in Escherichia coli pBR322 at 25 ug/mL by electrophoresis; assay type: nucleic-acid assay
[3] = test system: KB; test: Cytotoxicity against human KB cells; assay type: functional; details: read-out: ED50 (the source's name)

Molecule | Activity [1] | Activity [2] | EC50 [3]
BLEOMYCIN SULFATE | Active |  | 
Oc1ccc2c(c1O)OC[C@@H]1c3cc4c(cc3O[C@H]21)OCO4 |  | Active | 0.9 µg/mL (≈ 3 µM)
COc1ccc2c(c1O)OC[C@@H]1c3cc4c(cc3O[C@H]21)OCO4 |  | inactive | 4 µg/mL (≈ 12.7 µM)
Oc1ccc2c(c1)OC[C@@H]1c3cc4c(cc3O[C@H]21)OCO4 [(+)-MAACKIAIN] |  | inactive | 5.6 µg/mL (≈ 19.7 µM)
